Assay results taken from article PMC11676834, “Composition of Triterpene Glycosides of the Far Eastern Sea Cucumber Cucumaria conicospermium Levin et Stepanov; Structure Elucidation of Five Minor Conicospermiumosides A3-1, A3-2, A3-3, A7-1, and A7-2; Cytotoxicity of the Glycosides Against Human Breast Cancer Cell Lines; Structure–Activity …” (Marine Drugs, 2024).
Read-outs that look alike come from different tables or passages of the source.

How the values were obtained:
human erythrocytes [1] = assay: Hemolytic activity; format: cell-based; conditions: 1 h at 37 °C
Protocol: Human blood (B(III) Rh+) was used to obtain erythrocytes by centrifuging 450× g three times for 5 min with phosphate-buffered saline (PBS) (pH 7.4) at 4 °C on centrifuge LABOFUGE 400R (Heraeus, Hanau, Germany). Ice-cold PBS (pH 7.4) was used for resuspension of erythrocytes residue to a final optical density of 1.5 at 700 nm, which was kept on ice. Then, 10 µL of tested compound solution or control (okhotoside A1-1 (7)) were added to 90 µL of erythrocyte suspension in V-bottom 96-well plates and exposed for 1 h at 37 °C. Next, centrifugation at 900× g for 10 min on a laboratory centrifuge LMC-3000 (Biosan, Riga, Latvia), led to separation of layers, and 80 µL of supernatant was carefully decanted and transferred into new flat-plate for each. The values of erythrocyte lysis were measured on microplate photometer Multiskan FC (Thermo Fisher Scientific, Waltham, MA, USA) at λ = 570 nm as hemoglobin concentration in supernatant. The effective dose, causing lysis of 50% erythrocytes (ED50), was calculated with SigmaPlot 14.0 software. All the experiments were carried out in triple repetitions, p ≤ 0.05.

in vitro = format: cell-based, human; conditions: human
From the text: (§1) Human erythrocytes were purchased from the Station of Blood Transfusion, Vladivostok. Human mammary epithelial cell line MCF-10A CRL-10317, human breast cancer cell lines T-47D HTB-133, MCF-7 HTB-22, and MDA-MB-231 CRM-HTB-26 were received from ATCC (Manassas, VA, USA). Culturing conditions: medium of RPMI-1640 with 1% penicillin/streptomycin (Biolot, St. Petersburg, Russia) and 10% fetal bovine serum (FBS) (Biolot, St. Petersburg, Russia) for the T-47D cell line; Minimum Essential Medium (MEM) with 1% penicillin/streptomycin sulfate (Biolot, St. Petersburg, Russia) and FBS (Biolot, St. Petersburg, Russia) to a final concentration of 10% for MCF-7 and MDA-MB-231 cells; DMEM/F12 medium with 10% FBS, 20 ng/mL EGF, […] hydrocortisone, 100 ng/mL cholera toxin, 10 μg/mL insulin, and 1% penicillin/streptomycin (BioinnLabs, Rostov-on-Don, Russia) for MCF-10A cell line.
(§2) The concentrations of tested glycosides were 0.1–50 µM; positive controls were cisplatin and okhotoside A1-1 (7). […] Then, the solutions of tested compounds with medium were replaced by 100 µL of fresh medium, and 10 µL of 3-(4,5-dimethylthiazol-2-yl)-2,5-diphenyltetrazolium bromide (MTT) (PanReac, AppliChem, Darmstadt, Germany) stock solution (5 mg/mL) was added to each well and incubated for 4 h, followed by the addition of 100 µL of SDS-HCl solution (1 g SDS/10 mL d-H2O/17 µL 6 N HCl) and further incubated for 18 h. Multiskan FC microplate photometer (Thermo Fisher Scientific, Waltham, MA, USA) was used to measure the absorbance of the converted dye formazan at 570 nm. The concentration caused the 50% cell metabolic activity inhibition (IC50) expresses the cytotoxic activity of each glycoside. The experiments were conducted in triplicate, p ≤ 0.05.

MCF-7 cells = assay: cells; format: cell-based, human; conditions: MTT, 24 h, read-out: Cytotoxicity, IC50, MCF-7
From the text: as §1
(§3) The concentrations of tested glycosides were 0.1–50 µM; positive controls were cisplatin and okhotoside A1-1 (7). Methodology: to each well of 96-well plates, the cell suspension (180 µL) with solution (20 µL) of tested glycoside in a certain concentration was placed (MCF-10A, MCF-7, T-47D, and MDA-MB-231—7 × 10^3 cells per well) and incubated in the atmosphere with 5% CO2 at 37 °C for 24 h. Then, the solutions of tested compounds with medium were replaced by 100 µL of fresh medium, and 10 µL of 3-(4,5-dimethylthiazol-2-yl)-2,5-diphenyltetrazolium bromide (MTT) (PanReac, AppliChem, Darmstadt, Germany) stock solution (5 mg/mL) was added to each well and incubated for 4 h, followed by the addition of 100 µL of SDS-HCl solution (1 g SDS/10 mL d-H2O/17 µL 6 N HCl) and further incubated for 18 h. Multiskan FC microplate photometer (Thermo Fisher Scientific, Waltham, MA, USA) was used to measure the absorbance of the converted dye formazan at 570 nm. The concentration caused the 50% cell metabolic activity inhibition (IC50) expresses the cytotoxic activity of each glycoside. The experiments were conducted in triplicate, p ≤ 0.05.

T-47D cells = assay: cells; format: cell-based, human; conditions: MTT, 24 h, read-out: Cytotoxicity, IC50, T-47D
From the text: as §1, §3

MDA-MB-231 cells [2] = assay: cells; format: cell-based, human
From the text: as §1, §2

MCF-10A cells [3] = assay: Colony formation (clonogenic) assay, MCF-10A; format: cell-based, human
Protocol: The influence of glycosides on colony formation by MCF-10A or MDA-MB-231 cells was tested by the clonogenic assay. Cell density: 0.3 × 10^2/mL for MDA-MB-231 and for MCF-10A cells per well; incubation conditions: 10–12 days, 37 °C, atmosphere with 5% CO2; obtained: visible to eye colonies (at least 50 cells per colony); fixation with methanol (25 min); staining with 0.5% solution of crystal violet (25 min); washing and air-drying of plates. The counting of grown colonies was carried out using a BIO-PRINT-Cx4 Edge-Fixed Pad-Container (Vilber, Collégien, France) using Bio-Vision Software user and service manual-v18.01 (Vilber, Collégien, France). The results are presented as colony inhibition in comparison with the control.

MDA-MB-231 cells [4] = assay: Wound scratch migration assay; format: cell-based, human; conditions: 5 μM, 24 h
Protocol: Attached to special migration plate plastic bottom MDA-MB-231 cells were separated by a silicone insert (Culture-insert 2 Well 24, ibiTreat). After removing an insert, the gap between the cells was 500 ± 50 μm. Cell debris and floating cells were deleted, and the fresh culture medium was added. Then, cells were treated with various concentrations of glycosides or culture medium only (vehicle control) and left for 24 hrs. Cell migration into the wound area was observed under a fluorescence microscope (MIB-2-FL, LOMO, Russia) with objective 10× magnification.

human erythrocytes [5] = system: human erythrocytes; design: method as in PMID 38132923; conditions: studied earlier; ref [8]; cited from earlier work
MCF-10A cells [6] = assay: in vitro; format: cell-based, human
From the text: as §1, §2

[7] = 48 h, read-out: Cytotoxicity, IC50, 48 h, MCF-10A
[8] = 72 h, read-out: Cytotoxicity, IC50, 72 h, MCF-10A
[9] = MTT, 24 h, read-out: Cytotoxicity, IC50, MCF-10A

## C=C(C)CCC[C@]1(C)OC(=O)C23CC[C@H]4C(=CC[C@H]5C(C)(C)C(O[C@@H]6OC[C@@H](OS(=O)(=O)O)[C@H](O)[C@H]6O[C@@H]6O[C@H](CO)[C@@H](O[C@@H]7O[C@H](CO)[C@@H](O)[C@H](O[C@@H]8O[C@H](CO)[C@@H](O)[C@H](OC)[C@H]8O)[C@H]7O)[C@H](O)[C@H]6O[C@@H]6OC[C@@H](O)[C@H](O)[C@H]6O)CC[C@]45C)[C@]2(C)C[C@H](OC(C)=O)C31 (some centres unmarked) [Okhotoside B1 (8), okhotoside B1]
Human erythrocytes [1]; Erythrocyte, read-out: ED50, Erythrocytes (hemolytic activity)
  HC50: 1050 ± 120 nM
In vitro; [7]
  IC50: 15.5 ± 0.81 µM
In vitro; [8]
  IC50: 16.5 ± 0.98 µM
In vitro; [9]
  IC50: 41 ± 0.81 µM
MCF-7 cells; Homo sapiens, MCF7
  IC50: 42.9 ± 2 µM
T-47D cells; Homo sapiens, T47D
  IC50: 20.3 ± 0.85 µM
MDA-MB-231 cells [2]; 24 h
  Tumor cell selectivity index (SI), IC50 MCF-10A / IC50 MDA-MB-231: 3.61
MDA-MB-231 cells [2]; 48 h
  Tumor cell selectivity index (SI), IC50 MCF-10A / IC50 MDA-MB-231: 1.32
MDA-MB-231 cells [2]; 72 h
  Tumor cell selectivity index (SI), IC50 MCF-10A / IC50 MDA-MB-231: 5.65
MDA-MB-231 cells [2]; Homo sapiens, MDA-MB-231, 48 h, read-out: Cytotoxicity, IC50, 48 h, MDA-MB-231
  IC50: 11700 ± 1000 nM
MDA-MB-231 cells [2]; Homo sapiens, MDA-MB-231, 72 h, read-out: Cytotoxicity, IC50, 72 h, MDA-MB-231
  IC50: 2920 ± 70 nM
MDA-MB-231 cells [2]; Homo sapiens, MDA-MB-231, MTT, 24 h, read-out: Cytotoxicity, IC50, MDA-MB-231
  IC50: 11400 ± 200 nM
MCF-10A cells [3]; Homo sapiens, MCF-10A, 5 μM, % of the control
  inhibition at 5 µM: 40.2%
MDA-MB-231 cells [4]
  Constraint on cell motility (migration) of MDA-MB-231 cells: 97%

## CO[C@@H]1[C@@H](O)[C@H](O[C@@H]2[C@@H](O)[C@H](O[C@H]3[C@H](O)[C@@H](O[C@@H]4OC[C@@H](O)[C@H](O)[C@H]4O)[C@H](O[C@H]4[C@H](O[C@H]5CC[C@]6(C)C7CC[C@]8(C)[C@@H]([C@@](C)(O)C(=O)CC=C(C)C)CC[C@@]8(C)C7=CC[C@H]6C5(C)C)OC[C@@H](OS(=O)(=O)[O-])[C@@H]4O)O[C@@H]3C)O[C@H](COS(=O)(=O)[O-])[C@H]2O)O[C@H](COS(=O)(=O)[O-])[C@H]1O.[Na+].[Na+].[Na+] (some centres unmarked) [djakonovioside F1 (15), djakonovioside F1]
Human erythrocytes [5]
  Hemolytic activity (in words): highly active

## DS-okhotoside B1 [DS-okhotoside B1 (8a)]
Human erythrocytes [1]
  ED50, Erythrocytes (hemolytic activity): 0.33 ± 0.03 µM
MCF-10A cells [6]; [7]
  IC50: 5.81 ± 0.46 µM
MCF-10A cells [6]; [8]
  IC50: 2.77 ± 0.25 µM
MCF-10A cells [6]; [9]
  IC50: 9.87 ± 0.73 µM
MCF-7 cells
  IC50: 18.8 ± 0.71 µM
T-47D cells
  IC50: 9.62 ± 0.3 µM
MDA-MB-231 cells [2]; 24 h
  Tumor cell selectivity index (SI), IC50 MCF-10A / IC50 MDA-MB-231: 9.06
MDA-MB-231 cells [2]; 24 h, listed as 8a
  Tumor cell selectivity index (SI), IC50 MCF-10A / IC50 MDA-MB-231: ~10
MDA-MB-231 cells [2]; 48 h
  Tumor cell selectivity index (SI), IC50 MCF-10A / IC50 MDA-MB-231: 2.21
MDA-MB-231 cells [2]; 48 h, read-out: Cytotoxicity, IC50, 48 h, MDA-MB-231
  IC50: 2630 ± 140 nM
MDA-MB-231 cells [2]; 72 h
  Tumor cell selectivity index (SI), IC50 MCF-10A / IC50 MDA-MB-231: 4.62
MDA-MB-231 cells [2]; 72 h, read-out: Cytotoxicity, IC50, 72 h, MDA-MB-231
  IC50: 600 ± 30 nM
MDA-MB-231 cells [2]; MTT, 24 h, read-out: Cytotoxicity, IC50, MDA-MB-231
  IC50: 1090 ± 80 nM
MCF-10A cells [3]; 0.5 μM
  Influence on colony formation and growth of MCF-10A cells: did not influence
